Like-named read-outs stand apart in the source and are kept apart here. One block for each compound: values may come before it. Non-standard residues stand in square brackets, D forms with d. Residues, ends and D or L forms follow the SMILES beside them. *: point of attachment. X2 = O=C(CCCCCCCC(=O)*)N1CCN(c2ncnc3[nH]ccc23)CC1
Assays:
[1] = target: PKAcα; conditions: cited from earlier work
[2] = target: T1, PKAcα (Homo sapiens, UniProt P17612); test: FA-based competitive binding/displacement assay (probe ARC-583); conditions: for influence of TCEP on the displacement curve: FA assay, TCEP 1 mM
Description: (§1) In the present work, photoluminescence-based competitive equilibrium binding assay was used to establish the KD and KD^app values of the novel compounds as determined before and after fragmentation, respectively. […] Two assay formats were used, which were designed for the determination of KD values of high-affinity bivalent inhibitors and the mixtures of their low-affinity fragments, respectively.
A typical assay setup based on the measurement of FA utilizes concentrations of the fluorescence probes slightly below the concentration of the target protein but higher than the KD^* to achieve maximal Δr. The assay in the present work was conducted at 2 nM ARC-583 and 3 nM PKAcα. […] Thus, the KD values for low-affinity compounds can be reliably established with this FA-based assay format.
The fluorescence intensity (FI), fluorescence anisotropy (FA), and time gated photoluminescence intensity (TGLI) measurements were performed with a PHERAstar (BMG Labtech) microplate reader. The FI and FA measurements of the photoluminescent probe ARC-583 were performed with FP optical module [EX 540(50) nm, EM 590(50) nm]. The detector was adjusted with solution of the free probe ARC-583 (in the absence of PKAcα). […] The TGLI measurements of photoluminescent probes ARC-1182 and ARC-1063 were performed with HTRF optical module (EX 330(50) nm, EM 675(50) nm). The TGLI was recorded for 200 µs after 60 µs delay from the flash-excitation.
Upon arrival, the stock solution of PKAcα was divided into batches and stored at −80 °C. After removal from a freezer at −80 °C, the batches of PKAcα were stored at 0 °C in an ice box until consumed, to avoid repetitive freeze-thaw cycles.
The microplates were incubated for 30 min at 30 °C before measurements. The measurements were repeated after 60 min to verify that the reactions had reached the equilibrium. […] Formation of the complex was observed by the change of FA and the concentration of PKAcα was calculated as previously described [40, 42]. […] First, the solutions were incubated for 30 min at 30 °C, thereafter the FA or TGLI signals were measured. Then, the stock solution of TCEP (1 µL) was added to all wells to the final concentration of 1 mM. The microplates were then incubated for an additional 30 min at 30 °C and the FA or TGLI signals were measured in the presence of TCEP. All experiments were carried out in at least two replicates (n ≥ 2) and the reported errors are the standard errors of the mean.
The anisotropy change (Δr) with respect to the anisotropy of free photoluminescent probe ARC-583 and the TGLI of the photoluminescent probes ARC-1182 and ARC-1063 were plotted as functions of log[I]T, where [I]T corresponds to the total concentration of the ‘dark’ ligand/inhibitor that competes with the probe for the binding to the catalytic subunit of PK ([I]T = [I] + [PK:I], where [I] and [PK:I] correspond to the equilibrium concentrations of unbound I and PK:I complex, respectively).

[3] = target: T1, PKAcα
Description: as §1
The first assay was based on the measurement of the time-gated photoluminescence signal intensity (TGLI) and it utilized ARC-Lum(Fluo) probes ARC-1063 or ARC-1182, which both emit long life-time photoluminescence signal when associated with a target PK [38]. ARC-1063 and ARC-1182 differ by the fluorescent label (Figure S7) and the choice between these probes was only based on the availability of the particular probe. […]
The displacement data were fitted to the previously described [40, 42] exact model of competitive binding (further explained in Appendix A) to determine KD and KD^app values, which were used as concentration- and probe-independent quantities to evaluate the deactivation efficiencies of the novel compounds.
The fluorescence intensity (FI), fluorescence anisotropy (FA), and time gated photoluminescence intensity (TGLI) measurements were performed with a PHERAstar (BMG Labtech) microplate reader. […] The TGLI was recorded for 200 µs after 60 µs delay from the flash-excitation. […]

[4] = HPLC-MS analysis of the fragmentation of ARC-2121 and ARC-2194; assay type: physicochemical; conditions: TCEP 1 mM, pH 7.5, 30 °C
Protocol: At fixed time points (1, 10, 30, 60, and 120 min), 10 µL of the solution (corresponding to 1 nmol of the substrate) was injected into the RP-HPLC column.
ARC-2121 (200 µM) was dissolved in H2O:MeCN (10:1). ARC-2121 (200 µM, 20 µL) was irradiated for a fixed time (15, 30, 60, 90, and 120 s) inside a microtiter plate at room temperature (rt) using the custom-made 365 nm LED array (Figure S2). Then, 9 µL (1.7 nmol) of the solution was injected into the RP-HPLC column.

[5] = system: PKAcα; test: Estimated dynamic range of enzyme activity change upon deactivation (Equations 2, 3); conditions: estimated from change of KD app / IC50 upon deactivation
Description: In general, deactivation of an inhibitor can be observed by a shift of a dose-response curve in a biochemical assay, which is caused by the increase of IC50 value from IC50^ON (the IC50 of the active inhibitor) to IC50^OFF (the IC50 of the deactivated inhibitor). The fraction of the active enzyme before and after applying the trigger depends on the initial concentration of the deactivatable inhibitor. If the sigmoidal dose–response model describes the concentration dependencies of the inhibition before and after applying the stimulus, the biggest change of the fraction of the active enzyme in the solution is observed at the concentration of the inhibitor Iopt whose logarithm is the average of the corresponding logIC50 values (Equation (2)):(2) logIopt=1/2logIC50ON+logIC50OFF
The ratio of fractions of active enzyme after (a^maxopt) and before (a^minopt) deactivation of the inhibitor (i.e., the on/off ratio of the activity of the enzyme) is determined by the square root of the ratio of the corresponding IC50 values (Equation (3)):(3) aoptmax/aoptmin=IC50OFF/IC50ON^1/2
Thus, the larger the difference between IC50^ON and IC50^OFF values is (ΔIC50), the higher the dynamic range of activity change (Δaopt = a^maxopt − a^minopt) of the enzyme is. […]

[6] = system: PKAcα; design: method as in PMID 17125267; conditions: cited from earlier work

Compound: N=C(N)NCCC[C@@H](NC(=O)CCCCCCCC(=O)N1CCN(c2ncnc3[nH]ccc23)CC1)C(=O)N[C@H](CCCNC(=N)N)C(=O)N[C@H](CCCNC(=N)N)C(=O)N[C@H](CCCNC(=N)N)C(=O)N[C@H](CCCNC(=N)N)C(=O)N[C@H](CCCNC(=N)N)C(=O)N[C@H](CCCCN)C(N)=O [ARC-1411] (X2-[dR][dR][dR][dR][dR][dR][dK]-NH2)
Kd ([1]; previously measured affinity): 0.003 nM | influence of TCEP on the displacement curve [2]: not influenced | Kd [3]: 3 ± 1 pM

Compound: N=C(N)NCCC[C@@H](NC(=O)[C@@H](CCCNC(=N)N)NC(=O)[C@@H](CCCNC(=N)N)NC(=O)[C@@H](CCCNC(=N)N)NC(=O)[C@@H](CCCNC(=N)N)NC(=O)[C@@H](CCCNC(=N)N)NC(=O)OCCSSCCOC(=O)N1CCN(c2ncnc3[nH]ccc23)CC1)C(N)=O [ARC-2194]
time to quantitative conversion of parent compound to 1a ([4]; 100 µM): less than 1 min | Δaopt (dynamic range of activity change of the enzyme) [5]: 98%

fraction converted to 2a ([4]; after 2 h): more than 50%
Compound: O=C(OCCS)N1CCN(c2ncnc3[nH]ccc23)CC1 [Compound 1a]

Compound: c1nc(N2CCNCC2)c2cc[nH]c2n1 [Compound 2a, 4-(piperazin-1-yl)-7H-pyrrolo [2,3-d]pyrimidine]
Kd [2]: 550 ± 150 nM | influence of TCEP on the displacement curve [2]: not influenced

Kd [2]: 460 ± 210 nM
Compound: NC(=O)CCCCCCCC(=O)N1CCN(c2ncnc3[nH]ccc23)CC1 [Compound 11a, 7DP-Pip-Nda-amide]

influence of TCEP on the displacement curve [2]: not influenced
Compound: O=S(=O)(NCCNC/C=C/c1ccc(Br)cc1)c1cccc2cnccc12 [Compound H-89]
Kd ([1]; H-89:PKAcα complex): 9 nM

Compound: hexa-D-arginine
inhibitory potency [6]: millimolar

Reference: PMC9573699, “Deactivatable Bisubstrate Inhibitors of Protein Kinases” (Molecules, 2022)
